Test results taken from ChEMBL document CHEMBL2346513, “Synthesis and evaluation of methylsulfonylnitrobenzamides (MSNBAs) as inhibitors of the thyroid hormone receptor-coactivator interaction” (Bioorg Med Chem Lett, 2013).

Key:
HepG2 = test: Cytotoxicity against human HepG2 cells assessed as ATP level after 72 hrs by CellTiter-Glo assay; type: cell-based; conditions: HepG2, 72 h
Vitamin D3 receptor = molecular target: T1, Vitamin D3 receptor (Homo sapiens, UniProt P11473); test: Inhibition of VDR (unknown origin) interaction to SRC2-3 peptide by fluorescence polarization assay
T1 sequence (P11473 whole entry): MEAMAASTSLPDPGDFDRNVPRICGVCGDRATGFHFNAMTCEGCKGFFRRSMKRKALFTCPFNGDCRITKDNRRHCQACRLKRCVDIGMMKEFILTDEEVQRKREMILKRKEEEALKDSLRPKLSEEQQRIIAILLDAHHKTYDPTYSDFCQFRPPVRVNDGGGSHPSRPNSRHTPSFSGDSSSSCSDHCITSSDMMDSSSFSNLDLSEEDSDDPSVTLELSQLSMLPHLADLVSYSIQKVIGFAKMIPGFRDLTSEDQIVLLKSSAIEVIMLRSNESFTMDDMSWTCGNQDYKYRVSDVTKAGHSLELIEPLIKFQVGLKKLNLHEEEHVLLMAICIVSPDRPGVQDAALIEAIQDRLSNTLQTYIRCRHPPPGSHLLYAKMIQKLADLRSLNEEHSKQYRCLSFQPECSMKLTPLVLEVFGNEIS

[1] = molecular target: T2, Thyroid hormone receptor alpha (Homo sapiens, UniProt P10827); test: Inhibition of TRalpha-LBD (unknown origin) interaction to texas red-labeled SRC2-2 peptide by fluorescence polarization assay
T2 sequence (P10827 whole entry): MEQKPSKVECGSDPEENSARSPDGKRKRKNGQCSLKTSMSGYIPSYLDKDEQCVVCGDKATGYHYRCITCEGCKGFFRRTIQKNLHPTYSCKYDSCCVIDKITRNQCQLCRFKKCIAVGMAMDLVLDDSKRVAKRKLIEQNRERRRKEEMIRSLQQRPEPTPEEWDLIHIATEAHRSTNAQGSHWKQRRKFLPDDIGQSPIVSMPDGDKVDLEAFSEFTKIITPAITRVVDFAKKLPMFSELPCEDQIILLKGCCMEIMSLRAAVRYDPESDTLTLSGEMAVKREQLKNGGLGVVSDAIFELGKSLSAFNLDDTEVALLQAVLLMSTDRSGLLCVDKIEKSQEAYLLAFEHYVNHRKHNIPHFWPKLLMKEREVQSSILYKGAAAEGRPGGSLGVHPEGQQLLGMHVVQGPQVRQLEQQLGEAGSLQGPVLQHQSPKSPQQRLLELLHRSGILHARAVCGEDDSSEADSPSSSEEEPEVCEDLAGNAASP

[2] = molecular target: T3, Thyroid hormone receptor beta (Homo sapiens, UniProt P10828); test: Inhibition of TRbeta-LBD (unknown origin) interaction to texas red-labeled SRC2-2 peptide by fluorescence polarization assay
T3 sequence (P10828 whole entry): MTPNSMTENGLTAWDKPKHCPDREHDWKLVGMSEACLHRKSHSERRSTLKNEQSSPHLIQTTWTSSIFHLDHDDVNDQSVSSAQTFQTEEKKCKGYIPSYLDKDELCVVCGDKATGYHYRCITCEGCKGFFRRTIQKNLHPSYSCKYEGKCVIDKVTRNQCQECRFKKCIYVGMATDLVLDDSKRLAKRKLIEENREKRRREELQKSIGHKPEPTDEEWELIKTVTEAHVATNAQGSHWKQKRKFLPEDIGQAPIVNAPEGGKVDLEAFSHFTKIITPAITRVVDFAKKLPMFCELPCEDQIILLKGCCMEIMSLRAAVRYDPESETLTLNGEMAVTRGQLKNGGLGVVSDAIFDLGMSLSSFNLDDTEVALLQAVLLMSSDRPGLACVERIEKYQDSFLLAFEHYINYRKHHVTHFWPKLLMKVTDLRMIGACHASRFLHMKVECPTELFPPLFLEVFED

Row | Structure (SMILES) | EC50 (HepG2) | IC50 (Vitamin D3 receptor) | IC50 [1] | IC50 [2]
1 | CS(=O)(=O)c1ccc(C(=O)N2CCC(C(=O)N3CCCCC3)CC2)cc1[N+](=O)[O-] | > 27 µM | > 60 µM | > 60 µM | > 60 µM
2 | CN1CCN(C(=O)CNC(=O)c2ccc(S(C)(=O)=O)c([N+](=O)[O-])c2)CC1 | > 27 µM | > 60 µM | > 60 µM | > 60 µM
3 | CN(CC(=O)N1CCc2ccccc21)C(=O)c1ccc(S(C)(=O)=O)c([N+](=O)[O-])c1 | > 27 µM | > 60 µM | > 60 µM | > 60 µM
4 | CN(CC(=O)N1Cc2ccccc2C1)C(=O)c1ccc(S(C)(=O)=O)c([N+](=O)[O-])c1 | > 27 µM | > 60 µM | > 60 µM | > 60 µM
5 | CS(=O)(=O)c1ccc(C(=O)NCC(=O)N2CCN(c3ccc(C(F)(F)F)cc3)CC2)cc1[N+](=O)[O-] | > 27 µM | > 60 µM | > 60 µM | > 60 µM
6 | CN(Cc1ccccc1F)C(=O)CN(C)C(=O)c1ccc(S(C)(=O)=O)c([N+](=O)[O-])c1 | > 27 µM | > 60 µM | > 60 µM | > 60 µM
7 | CS(=O)(=O)c1ccc(C(=O)NCCCC(=O)NC23CC4CC(CC(C4)C2)C3)cc1[N+](=O)[O-] | > 27 µM | > 60 µM | > 60 µM | 10.6 µM
8 | CS(=O)(=O)c1ccc(C(=O)NCCC(=O)N2CCc3ccccc32)cc1[N+](=O)[O-] | > 27 µM | > 60 µM | > 60 µM | > 60 µM
9 | CS(=O)(=O)c1ccc(C(=O)NCC(=O)N2CCc3ccccc3C2)cc1[N+](=O)[O-] | > 27 µM | 50 µM | > 60 µM | 46 µM
10 | CS(=O)(=O)c1ccc(C(=O)N2CCC(C(=O)N3CCN(c4ccccc4)CC3)CC2)cc1[N+](=O)[O-] | > 27 µM | > 60 µM | > 60 µM | > 60 µM
11 | CS(=O)(=O)c1ccc(C(=O)NCCC(=O)N2Cc3ccccc3C2)cc1[N+](=O)[O-] | 11.2 µM | > 60 µM | > 60 µM | > 60 µM
12 | CN(C(=O)CCNC(=O)c1ccc(S(C)(=O)=O)c([N+](=O)[O-])c1)c1ccccc1 | > 27 µM | > 60 µM | 37 µM | > 60 µM
13 | Cc1ccc(N2CCN(C(=O)CN(C)C(=O)c3ccc(S(C)(=O)=O)c([N+](=O)[O-])c3)CC2)cc1 | > 27 µM | > 60 µM | > 60 µM | > 60 µM
14 | CS(=O)(=O)c1ccc(C(=O)N2CCC(C(=O)N3Cc4ccccc4C3)CC2)cc1[N+](=O)[O-] | > 27 µM | > 60 µM | > 60 µM | > 60 µM
15 | CS(=O)(=O)c1ccc(C(=O)NCCC(=O)N2CCN(c3ccc(F)cc3)CC2)cc1[N+](=O)[O-] | > 27 µM | > 60 µM | > 60 µM | > 60 µM
16 | CS(=O)(=O)c1ccc(C(=O)N2CCC(C(=O)N3CCc4ccccc43)CC2)cc1[N+](=O)[O-] | > 27 µM | > 60 µM | > 60 µM | > 60 µM
17 | Cc1ccc(N2CCN(C(=O)CCNC(=O)c3ccc(S(C)(=O)=O)c([N+](=O)[O-])c3)CC2)cc1 | > 27 µM | > 60 µM | > 60 µM | > 60 µM
18 | CS(=O)(=O)c1ccc(C(=O)NCCCC(=O)N2CCc3ccccc32)cc1[N+](=O)[O-] | > 27 µM | > 60 µM | > 60 µM | > 60 µM
19 | CN(CC(=O)N1CCN(c2ccccc2)CC1)C(=O)c1ccc(S(C)(=O)=O)c([N+](=O)[O-])c1 | > 27 µM | > 60 µM | > 60 µM | > 60 µM
20 | CC(C)N(C(=O)CCNC(=O)c1ccc(S(C)(=O)=O)c([N+](=O)[O-])c1)C(C)C | > 27 µM | > 60 µM | > 60 µM | > 60 µM

Row | Structure (SMILES) | EC50 (HepG2) | IC50 (Vitamin D3 receptor) | IC50 [1] | IC50 [2]
21 | CS(=O)(=O)c1ccc(C(=O)NCCC(=O)N(Cc2ccccc2)Cc2ccccc2)cc1[N+](=O)[O-] | > 27 µM | 38 µM | 33 µM | > 60 µM
22 | CN(C(=O)CCCNC(=O)c1ccc(S(C)(=O)=O)c([N+](=O)[O-])c1)c1ccccc1 | > 27 µM | > 60 µM | > 60 µM | > 60 µM
23 | CS(=O)(=O)c1ccc(C(=O)NCCC(=O)NC23CC4CC(CC(C4)C2)C3)cc1[N+](=O)[O-] | > 27 µM | 44 µM | 25 µM | 31 µM
24 | CN(CC(=O)N(Cc1ccccc1)Cc1ccccc1)C(=O)c1ccc(S(C)(=O)=O)c([N+](=O)[O-])c1 | > 27 µM | > 60 µM | > 60 µM | > 60 µM
25 | CN(CC(=O)N1CCC(c2ccccc2)CC1)C(=O)c1ccc(S(C)(=O)=O)c([N+](=O)[O-])c1 | > 27 µM | > 60 µM | > 60 µM | > 60 µM
26 | CS(=O)(=O)c1ccc(C(=O)NCCCC(=O)N(Cc2ccccc2)Cc2ccccc2)cc1[N+](=O)[O-] | > 27 µM | > 60 µM | 29 µM | 59 µM
27 | CS(=O)(=O)c1ccc(C(=O)N2CCC(C(=O)N3CCN(c4ccccc4F)CC3)CC2)cc1[N+](=O)[O-] | > 27 µM | > 60 µM | > 60 µM | > 60 µM
28 | CS(=O)(=O)c1ccc(C(=O)NCCCC(=O)N2CCCCC2)cc1[N+](=O)[O-] | > 27 µM | > 60 µM | > 60 µM | > 60 µM
29 | CN(Cc1ccccc1F)C(=O)CCCNC(=O)c1ccc(S(C)(=O)=O)c([N+](=O)[O-])c1 | > 27 µM | > 60 µM | > 60 µM | > 60 µM
30 | CN(CC(=O)N1CCN(c2ccc(F)cc2)CC1)C(=O)c1ccc(S(C)(=O)=O)c([N+](=O)[O-])c1 | 17.2 µM | > 60 µM | > 60 µM | > 60 µM
31 | CC1CCN(C(=O)CNC(=O)c2ccc(S(C)(=O)=O)c([N+](=O)[O-])c2)CC1 | > 27 µM | > 60 µM | 33 µM | 38 µM
32 | CS(=O)(=O)c1ccc(C(=O)NCC(=O)NC23CC4CC(CC(C4)C2)C3)cc1[N+](=O)[O-] | > 27 µM | > 60 µM | 9.6 µM | 16 µM
33 | CS(=O)(=O)c1ccc(C(=O)NCCC(=O)N2CCCCC2)cc1[N+](=O)[O-] | > 27 µM | > 60 µM | > 60 µM | > 60 µM
34 | CCCN(C(=O)CNC(=O)c1ccc(S(C)(=O)=O)c([N+](=O)[O-])c1)c1ccccc1 | > 27 µM | > 60 µM | 1.9 µM | 6.6 µM
35 | CN(Cc1cccc(F)c1)C(=O)CCCNC(=O)c1ccc(S(C)(=O)=O)c([N+](=O)[O-])c1 | > 27 µM | > 60 µM | > 60 µM | > 60 µM
36 | CS(=O)(=O)c1ccc(C(=O)NCCC(=O)N2CCN(c3ccccc3F)CC2)cc1[N+](=O)[O-] | > 27 µM | 66 µM | > 60 µM | > 60 µM
37 | CN(Cc1ccccc1)C(=O)CN(C)C(=O)c1ccc(S(C)(=O)=O)c([N+](=O)[O-])c1 | > 27 µM | > 60 µM | > 60 µM | > 60 µM
38 | CN(Cc1ccccc1F)C(=O)CCNC(=O)c1ccc(S(C)(=O)=O)c([N+](=O)[O-])c1 | > 27 µM | > 60 µM | > 60 µM | > 60 µM
39 | CS(=O)(=O)c1ccc(C(=O)NCC(=O)N2CCCCC2)cc1[N+](=O)[O-] | 14 µM | > 60 µM | 44 µM | > 60 µM
40 | CN(C(=O)CNC(=O)c1ccc(S(C)(=O)=O)c([N+](=O)[O-])c1)c1ccccc1 | > 27 µM | > 60 µM | 4.2 µM | 5.8 µM
